The record followed here is US20110160266A1, “Novel Anti-Arrhythmia Agent” (THE UAB RESEARCH FOUNDATION, priority 2008, published 2011).

For assay [1], the system named is isolated, superfused rat left atria. The protocol:
Left atria were isolated from male Sprague-Dawley rats (325 to 400 g) under IP pentobarbital anesthesia (0.1 g/kg). Isolated left atria were superfused at 30° C. in Krebs-Henseleit (KH) buffer of the following mM composition: NaCl, 118; NaHCO3, 27; KCl, 4.8; MgSO4, 1.2; KH2PO4, 1.0; CaCl2, 1.8; and glucose, 11.1. Nearly isometric left atrial forces of contraction were measured as described.
Isolated superfused left atria were paced at 3 Hz. 2-APB was added to atrial superfusates from 0.015 or 0.15M DMSO stock solutions to achieve concentrations of 0, 2, 7.5, 15, or 22 μM (n=5 to 10 atria per concentration). Changes in atrial mechanical force were recorded during a subsequent 15 min superfusion.
Two groups of 5 to 6, 3 Hz paced atria were superfused in KH and exposed to 0 or 15 μM 2-APB for 10 min. The pacing stimulus was interrupted for 5 min and the number of spontaneous mechanical events (SMEs), defined as increases in mechanical force occurring in the absence of pacing, were measured as was the postrest potentiation response (PRP).
To determine whether diastolic interval affected the interaction between 2-APB and left atria, atrial pacing was decreased to 0.1 Hz, and 0, 7.5, or 22 μM 2-APB was added to the superfusate (n=6-8 per group). Superfusions continued for 15 min, and changes in atrial mechanical function were observed.
To establish whether SMA was reversible, atria (n=7) were paced at 0.1 Hz, exposed to 15 μM 2-APB for 10 min, and washed with KH. The effect of removing 2-APB on atrial mechanical function was recorded.

Assay [2] deals with rat left atria. The method, then: The initial potentiated beat following prolonged rest (i.e., the PRP maximum force of contraction) reflects activator calcium available for SR release. The PRP response was used to obtain an indirect measure of left atrial SR calcium under our conditions.
Left atria (n=6) were superfused in KH, paced at 0.1 Hz, and subjected to PRP. Superfusion proceeded for another 35 min, and a second PRP was performed. These 2 forces were compared to assure the mechanical stability of our preparations.
One group (n=8) was superfused in KH, paced at 0.1 Hz, and their maximum force of contraction was measured.
A second group (n=8) was paced at 0.1 Hz in KH and subjected to PRP. They were exposed to 22 μM 2-APB and, after the appearance of SMA, were washed with KH containing 22 μM 2-APB and 82 mM sodium. Superfusion continued for 23 min and a second PRP was performed.
Control 0.1 Hz paced atria (n=8) were subjected to PRP and exposed to 400 μM DIDS, and a second PRP was performed 23 min later.
A group of atria (n=8) were paced at 0.1 Hz in KH and subjected to PRP. They were exposed to 22 μM 2-APB, 400 μM DIDS was added to the superfusate after the appearance of SMA, and a second PRP was performed 23 min later.

A further assay has as its system isolated rat left atria. In words: Pharmacological activation of spontaneous tachycardic activity (STA): calcium-loading agents with or without 2-APB. The method, then:
Male Sprague-Dawley rats (325-400 g) were anesthetized with intra-peritoneal pentobarbital (0.1 g/kg). Their right and left atria were isolated, superfused at 30° C. in Krebs-Henseleit buffer, and nearly isometric forces of contraction were measured from these muscles (Wolkowicz et al., 2002). 2-APB was prepared as a 150 mM dimethyl sulfoxide stock.
Left atria (n=8 per group) were paced at 3 Hz and (i) titrated with 0 to 30 nM isoproterenol (Ahlquist, 1970) or (ii) exposed to 3 μM forskolin (Laurenza et al., 1980). Left atrial force and frequency of contraction, the time to peak tension and relaxation times were recorded after a 3-5 min exposure to forskolin or to any concentration of isoproterenol. The 3 Hz pacing stimulus was interrupted at the end of these protocols to measure SMA. […]
Left atrial contraction and relaxation times were recorded at these five times, the pacing stimulus was stopped and rates of SMA were recorded. […] Atrial mechanical function was measured at these four times; the pacing stimulus then was stopped and rates of SMA were recorded.
Left atria (n=6 per group) were paced at 3 Hz, titrated with 0 to 300 nM (−)BayK 8644 ([…]-1,4-Dihydro-2,6-dimethyl-5-nitro-4-[2-(trifluormethyl)phenyl]-3-pyridinecarboxylic acid methyl ester; Franckowiak et al. 1985) or FPL-64176 (2,5-Dimethyl-4-[2-(phenylmethyl)benzoyl]-1H-pyrrole-3-carboxlic acid methyl ester); Zheng et al., 1991) and their mechanical function and rates of SMA were recorded after a 5 min exposure to any concentration of slow calcium channel activator.
Atrial mechanical function was recorded at this time; the pacing stimulus then was stopped and rates of SMA were recorded. […]
Left atria (n=7) were paced at 3 Hz, treated with 120 μM ouabain (Illanes and Marshall, 1964), and any change in mechanical function was recorded at a new steady state, ˜10 min later. […]

Assay [3] concerns right ventricular muscle strips and right ventricular papillary muscles. In words: Ventricular muscle model of SMA. Also noted: species or system rats. The settings on record: added to the superfusate in appropriate amounts; paced at 0.5 Hz. The source says: To further establish this model as a general test for arrhythmic and anti-arrhythmic agents, right ventricular muscle strips and right ventricular papillary muscles were isolated from anesthetized rats using methods known to persons skilled in the art. These muscles were then superfused as described above and paced at 0.5 Hz.

Assay [4] concerns rat left atria. In words: Suppression of STA induced by 2-APB plus BayK 8644 or isoproterenol in left atria. The following applies: for effect on STA initiated by BayK 8644 and 2-APB: 300 nM BayK 8644 + 20 μM 2-APB, zatebradine 70 μM, ZD-7288 10-100 μM, SKF-96365 about 10-70 μM. The protocol: 3 Hz-paced left atria (n=9 per group) were superfused (i) in Krebs-Henseleit alone or (ii) they were treated with 20 μM 2-APB for 10 min, (iii) with 300 nM BayK 8644 for 10 min and with 20 μM 2-APB for 10 min, or (iv) they were treated with 300 nM BayK 8644 and 20 μM 2-APB for 10 min, then with 70 μM zatebradine (3-[3-[[2-(3,4-Dimethoxyphenyl)ethyl]methyl amino]propyl]-1,3,4,5-tetrahydro-7,8,-dimethoxy-2H-3-benzazepin-2-one hydrochloride) for 10 min (Baruscotti et al., 2005). Pacing was interrupted at these times and rates of SMA were recorded.
(§1) Left atria (n=9) were paced at 0.1 Hz, treated with 300 nM BayK 8644 for 5 min, then with 20 μM 2-APB for 10 min, and the pacing stimulus was stopped. These preparations then were incubated with six increasing concentrations of zatebradine (10-100 μM) for 3-5 min at each concentration, and rates of SMA were recorded. Untreated right atria (n=9) also were titrated with zatebradine and its effect on contraction frequency was recorded.
To test whether zatebradine affects left atrial force of contraction, two groups of left atria (n=9 per group) were paced at 3 Hz and treated with 300 nM BayK 8644. Five minutes later one group was incubated with six increasing concentrations of zatebradine (10-100 μM) for 3-5 min at each concentration, and forces of contraction were recorded. A second group was treated with BayK 8644 but not zatebradine, and forces of contraction were recorded at corresponding times.
(§2) To test whether zatebradine affects the SMA occurring in the presence of 2-APB and isoproterenol, left atria (n=7) were paced at 0.1 Hz, treated with 30 nM isoproterenol for 5 min, then with 20 μM 2-APB for 10 min, and the pacing stimulus was stopped. Rates of SMA were recorded, these left atria were exposed to 70 μM zatebradine for 10 min, and rates of SMA were recorded again. A group of right atria (n=7) also were exposed to 30 nM isoproterenol for 5 min and then to 70 μM zatebradine for 10 min. Right atrial contraction frequency was recorded at these two times.
(§3) To test whether ZD-7288, an If inhibitor structurally unrelated to zatebradine (Baruscotti et al., 2005; Sanders et al., 2006) affects the SMA occurring in the presence of 2-APB and BayK 8644, rat left atria (n=7) were treated with 300 nM BayK 8644 for 5 min, then with 20 μM 2-APB for 10 min, and the rates of ectopic activity were recorded. These atria then were incubated with six increasing concentrations of ZD-7288 (10-100 μM) for 3-5 min at each concentration, and the rates of SMA were recorded. Right atria (n=7) were titrated similarly with ZD-7288 (0-100 μM) and the change in their contraction frequency was recorded.
In these experiments, a 2-APB model system was used to simulate tachycardic abnormal automaticity. Specifically, superfused left atria were treated sequentially with 300 nM BayK 8644, an activator of voltage-dependent calcium entry, which loads myocytes with calcium, and then with 2-APB (20 μM) to activate the putative myocyte system for abnormal automaticity. […] SKF-96365 (10 μM) was added to the superfusate. SKF-96365 reversed STA in these left atria within 2-3 min and the muscle became quiescent in the absence of pacing (FIG. 34, “Rest”).
Additional experiments determined the concentration-dependence of SKF-96365 inhibition of STA. These experiments were performed as described above except that various concentrations of SKF-96365 were added to the left atrial superfusate (about 10-70 μM). Exposing left atria to various concentrations of SKF-96365 reversed STA (FIG. 35).

For a further assay, the system named is rat right atria. In words: Right atrial spontaneous contraction frequency. The method, then:
as §1, §2, §3

The mark [5] stands for this setting: 2-APB values obtained during SMA, mean ± SEM.

Structures are written as SMILES. “And” between values parts separate entries of the source, which are not always exact repeats. Identical values can stand only once. Counter-ions that a name gives are not always drawn. Marks after values point to notes of the source that are not given here.

Consider `NCCOB(c1ccccc1)c1ccccc1` [2-APB, 2-aminoethoxydiphenyl borate], for which the “reversibility of SMA on removing 2-APB from the superfusate” value in assay [1] (0.1 Hz, 15 μM 2-APB, washed with KH, data not shown) is “restored regular atrial mechanical function”. Also, in assay [1] (setting [5]), the “T0.5R (time to 50% relaxation)” value was 35 ± 0.8 ms, the “T0.9R (time to 90% relaxation)” value came out at 74 ± 0.8 ms and the “TPT (time to peak tension)” value was found to be 59 ± 1.6 ms. The “2-APB concentration giving numerous SMEs during rest and a blunted post-rest response” value in assay [1] (3 Hz paced, 2-APB 10 min, then 5 min rest) was at least 15 µM. In assay [1] (atria paced at 0.1 Hz), the “2-APB concentration giving intermittent SMEs” value was at most 10 µM and the “2-APB concentration giving repeated SMEs giving way to sustained SMA” value was above 15 µM. The “2-APB concentration producing sporadic/intermittent spontaneous mechanical events” value in assay [1] (left atria paced at 3 Hz, 5 to 10 min of exposure) was > 10 µM and > 7.5 µM. Moreover, in the assay with rat left atria [2], the “maximum force of left atrial contraction vs values before the addition of 2-APB” value is on record as “significantly decreased”. The “rate of tachycardic response, Pre-washing” value in the assay on isolated rat left atria (300 nM BayK 8644 and 20 μM 2-APB) turned out to be 224±12 contractions/min. In addition, the “rate of SMA/STA in the absence of pacing” value with isolated rat left atria (20 μM 2-APB alone or with 30 nM isoproterenol, 3 μM forskolin, 300 nM BayK 8644, 300 nM FPL-64176 or 120 μM ouabain) is 47±6 contractions/min and ~50 contractions/min. Besides, in the assay with isolated rat left atria (concentrations per footnote), the “T0.5R (time to 50% relaxation)” value is reported as 35.9 msc, the “T0.9R (time to 90% relaxation)” value is 68.4 msc and the “TPT (time to peak tension)” value worked out at 57.5 msc. Further, the “SMA Rate” value in the assay with isolated rat left atria (spontaneous atrial mechanical events, concentrations per footnote) is given as 47^‡ SMEs per minute. Further, the “rate of tachycardic response, Post-washing” value with isolated rat left atria (washed with superfusate containing slow calcium channel activator but no 2-APB, 5 min later) was found to be 0.7±0.4 contractions/min. Besides, the “induction of ventricular SMA” value in assay [3] was “ventricular SMA was observed”.

Turning to `c1ccc(B(OB(c2ccccc2)c2ccccc2)c2ccccc2)cc1` [DPBA, diphenyl boronic anhydride], in assay [3], the “induction of ventricular SMA” value is recorded as “ventricular SMA was observed”.

For the compound `CCN(c1ccccc1)c1cc(NC)[n+](C)c(C)n1.[Cl-]` [ZD-7288], the “effect on STA initiated by BayK 8644 and 2-APB” value in the assay on rat left atria [4] is “decreases left atrial STA”. Moreover, the “effect on right atrial contraction frequency” value in the assay on rat right atria (ZD-7288 0-100 μM) is recorded as “decreases right atrial contraction frequency less robustly than zatebradine”.

A word on the IC50: it is the midpoint of a concentration-inhibition curve. As to `COc1ccc(CCN(C)CCCN2CCc3cc(OC)c(OC)cc3CC2=O)cc1OC` [zatebradine, 3-[3-[[2-(3,4-Dimethoxyphenyl)ethyl]methylamino]propyl]-1,3,4,5-tetrahydro-7,8,-dimethoxy-2H-3-benzazepin-2-one hydrochloride], the “effect on STA initiated by BayK 8644 and 2-APB” value with rat left atria [4] is “significantly decreases”. For the same compound, the “effect on left atrial force of contraction” value in the assay on rat left atria [4] (300 nM BayK 8644, 10-100 μM zatebradine) was “does not affect left atrial force of contraction”. Besides, in the assay on rat left atria [4] (3 Hz-paced, 300 nM BayK 8644, titrated with 10-100 μM zatebradine), the “left atrial force of contraction, % of initial force” value was 95±3.8 % of initial force. In addition, the half-inhibitory concentration (IC50) with rat left atria [4] (Rattus norvegicus, intact left atria exposed to BayK 8644 and 2-APB, linear decrease) was found to be 58 ± 5 µM; with rat right atria (Rattus norvegicus, untreated right atria titrated with zatebradine, read-out: IC50 for decrease of right atrial contraction frequency) it was 12 ± 1.1 µM. For the same compound, the “rate of appendage STA with zatebradine” value with rat left atria [4] (isoproterenol + 2-APB + 70 μM zatebradine for 10 min) stood at 110±24.5 contractions/min. Also, the “right atrial contraction frequency” value in the assay with rat right atria (30 nM isoproterenol, then 70 μM zatebradine for 10 min) came out at 212±9.7 contractions/min. The “maximum decrease of right atrial contraction frequency” value in the assay with rat right atria (zatebradine titration) is given as around 50%.
